According to patent US20110217293A1, “Uses of morelloflavone” (priority 2008, published 2011):
Entries after “also recorded” stand apart in the source; their conditions may differ.

Columns and labels:
[1] = test system: apoE−/− mice; experiment: Mouse carotid artery injury assay (morphometry, TUNEL, Ki-67, p-ERK staining); assay type: in vivo; conditions: for External elastic lamina area / Internal elastic lamina area / Luminal area / Medial area / Neointimal area: 0.15% diet
Experimental: The carotid artery injury assay was performed as described by Kuhel (16). Male apoE−/− mice were obtained from Jackson Laboratory (Bar Harbor, Me.) and maintained on a 12 hour light/dark cycle. All animal experimentation protocols were performed under institutional guidelines of animal welfare, in accordance with NIH guidelines. Mice were fed either normal rodent chow diet (5001, LabDiet) (n=10) or normal chow diet containing 0.15% morelloflavone (w/w) (n=9). This diet corresponded to 200 mg/kg morelloflavone if a 30 gm mouse consumes 4 grams of chow. Mice were placed on these diets for 7 days before they underwent carotid artery denudation by the insertion of an epoxy resin (Epon) probe as described (16).
Briefly, the entire length of the left carotid artery was exposed and the distal bifurcation of the carotid artery was looped proximally and ligated distally with a 7-0 suture. A transverse arteriotomy was made between the 7-0 silk sutures and the resin probe was inserted, advanced toward the aortic arch, and withdrawn 5 times. The probe was then removed, the proximal 7-0 suture was ligated, a 6-0 suture was secured, and the incision was closed with 5-0 sterile surgical gut. After surgery, mice were maintained on these diets 9 for 14 days before they were euthanized. After blood was sampled, the arteries of these mice were perfusion-fixed with 10% buffered formalin (pH 7.0) solution at a constant pressure of 100 mm Hg. The entire neck from each mouse was dissected, fixed further in 10% buffered formalin, decalcified, and then embedded in paraffin. Identical whole neck cross sections of […] were made from the distal side of the neck beginning at the point of the distal 7-0 ligature. Whole neck sections were used to evaluate both the injured and the uninjured control vessels on the same section. For each mouse, the 4 levels of serial sections were taken at […] intervals. These sections were stained by Verhoeff-van Gieson (VVG) staining and subjected to morphometric analyses. Images were digitized and captured using a Sony video connected to a personal computer.
Measurements were performed at a magnification of 200 using a Scion Image analysis computer program (Frederick, Md.). Data were obtained from the first 2 levels where endothelial denudation occurred. For each artery, the luminal area, area inside the internal elastic lamina (IELA), and the area encircled by external elastic lamina-IELA were measured. The intimal area (IA) was calculated as the IELA minus luminal area. For the determination of serum morelloflavone levels, animal sera were first digested by proteinase K in the presence of 0.01% SDS. Morelloflavone was then extracted into ethyl acetate and lyophilized.
For the analyses of intimal cell proliferation, apopotosis and ERK activation, Ki-67, Terminal deoxynucleotidyl transferase (TdT)-deoxyuridine nick-end labeling (TUNEL), and p-ERK staining, respectively, were performed. Ki-67 was detected using a monoclonal rabbit antibody (Clone TEC-3, DAKO North America, Inc., Carpinteria, Calif.) as described (8-9). Terminal deoxynucleotidyl transferase (TdT)-deoxyuridine nick-end labeling (TUNEL) staining (10) was performed using a FragEL™ DNA fragmentation detection kit (Oncogene Research Products, Boston, Mass.) according to the manufacturer's instructions. The Ki-67 and apoptotic indices, defined as the number of cells with DAB-positive nuclei divided by the total number of cells counted and expressed as a percentage, were then calculated. All cells within the intima were counted. Values are expressed as means±SD. Comparisons of parameters between two groups were made with Student's t test. When appropriate, ANOVA was performed to compare multiple groups. A value of P<0.05 was considered statistically significant.

[2] = target: T1, sPLA2-IIA (Homo sapiens, UniProt P14555); experiment: sPLA2 enzyme activity assay, Group IIA; assay type: biochemical; conditions: recombinant human sPLA2-IIA, data not shown
T1 sequence (P14555 21-144): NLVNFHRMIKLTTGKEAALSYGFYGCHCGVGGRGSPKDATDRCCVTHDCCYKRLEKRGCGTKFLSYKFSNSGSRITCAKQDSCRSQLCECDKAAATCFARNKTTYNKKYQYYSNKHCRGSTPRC
Experimental: (§1) Recombinant human sPLA2 isoforms, Group IB, Group IIA, Group V, and Lp-PLA2 were obtained from R&D Systems and Cayman Chemical Co. sPLA2 enzyme activities in the presence of various concentrations of morelloflavone or other inhibitors were determined using a commercially available assay system according to the manufacturer's instructions (Cayman Chemical Co.). Thioetheramide-1-palmitylthio-2-palmitoylamido-1,2-dideoxy-sn-glycero-3-phosphorylcholine (T-PC) and methyl arachidonyl fluorophosphonate (MAFP) were used as inhibitors of sPLA2 (IB, IIA, and V) and Lp-PLA2, respectively, per manufacturers' instructions.

[3] = test system: vascular smooth muscle cells; experiment: BrdU incorporation assay; assay type: cell-based, mouse; set-up: effect on BrdU labelling indices: dose or concentration left out as unconfirmed
Experimental: Mouse vascular smooth muscle cells, isolated as described (13), were maintained in 231 media (Cascade Biologics, Portland, Oreg.) supplemented with SMGS (Cascade Biologics) in a humidified incubator at 37° C. with 5% CO2. Cells from passages 4-9 were used in all experiments. All experiments were performed in subconfluent, unsynchronized cells growing in SMGS except for the lamellipodium formation assay.
Vascular smooth muscle cells were seeded at 2×10^4 cells per well in 96-well culture plates and incubated overnight. The next day, cells were found approximately 60-70% confluent. Cells were treated with various concentrations of morelloflavone ([…]) for 2 hrs and then pulsed with BrdU at 1 mM for 8 hrs. The amount of BrdU incorporated into the cells was quantified by BrdU Cell Proliferation Assay kit (Calbiochem, San Diego, Calif.), according to manufacturer's instructions. Briefly, the cells were fixed and permeabilized on tissue culture plastic, and incubated with anti-BrdU monoclonal antibody. After extensive washing, bound antibodies were visualized by goat anti-mouse IgG conjugated to horseradish peroxidase and tetra-methylbenzidine substrate and quantified by spectrophotometer at 450 nm. The protein content was determined using the Bradford assay (Bio-Rad, Hercules, Calif.).

[4] = target: T2, sPLA2-V (Homo sapiens, UniProt P39877); experiment: sPLA2 enzyme activity assay, Group V; assay type: biochemical; conditions: recombinant human sPLA2-V, data not shown
T2 sequence (P39877 21-138): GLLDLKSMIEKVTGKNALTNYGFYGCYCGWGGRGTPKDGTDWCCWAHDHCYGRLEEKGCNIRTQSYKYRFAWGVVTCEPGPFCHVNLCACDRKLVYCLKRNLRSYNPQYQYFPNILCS
Experimental: as §1

## O=C1c2c(O)cc(O)cc2O[C@H](c2ccc(O)cc2)[C@H]1c1c(O)cc(O)c2c(=O)cc(-c3ccc(O)c(O)c3)oc12 [morelloflavone, 5,7, 4′, 5″, 7″, 3″, 4″-heptahydroxy-[3,8″]-flavonylflavanone]
[1]; Injured carotid artery
  External elastic lamina area: 103000 ± 14300 µm²
  Internal elastic lamina area: 70000 ± 11100 µm²
  Luminal area: 62100 ± 10700 µm²
  Medial area: 39300 ± 15100 µm²
  Neointimal area: 7860 ± 4050 µm²
[1]; Injured carotid artery, listed as Morelloflavone
  Neointimal area: 7860 ± 4050 µm²
[1]; Uninjured carotid artery
  External elastic lamina area: 93100 ± 9140 µm²
  Internal elastic lamina area: 62900 ± 5900 µm²
  Luminal area: 62300 ± 5900 µm²
  Medial area: 30200 ± 14400 µm²
[1]; neointima of injured carotid artery
  Ki-67 indices: 0.17±0.41%
[1]; neointima of injured carotid artery, index expressed as a percentage
  TUNEL indices: 16.0±4.6
[1]; one out of 8 sections of treated animals
  sections with nuclear p-ERK signals in the neointima: 12.5%
[1]; oral morelloflavone
  effect on ERK activation (p-ERK positivity) in the neointima: decreases ERK activation; also recorded: reduced p-ERK positivity; also recorded: less ERK activation
[1]; oral, 0.15% w/w in chow, 7 days before and 14 days after injury, apoE−/− mice
  effect on injury-induced neointimal formation (restenosis): significantly less neointimal formation; also recorded: reduced neointimal formation; also recorded: significantly blocked injury-induced neointimal formation; also recorded: blocks restenosis
[2]
  IC50: > 10 µM
[3]
  effect on BrdU labelling indices: decreases BrdU labelling indices
[3]; concentrations up to 10 mM
  effect on percentage of S-phase cells / DNA synthesis (BrdU): did not significantly affect DNA synthesis; also recorded: does not affect the percentage of S-phase cells; also recorded: does not affect cell cycle progression
[4]
  IC50: > 10 µM
